Measurements: patent publication US20240181087A1, “COMPOSITION FOR CONTRAST IMAGING OF CANCER” (ASTELLAS PHARMA INC., priority 2021, published 2024)

Tested on: mouse tumor cell 4T1
Test: near-infrared fluorescence imaging after administration into tumor, 4T1 breast cancer model
Assay type: in vivo
Conditions: 4T1 tumor, 1 mg/mL saline, fluorescence imaging, incl. during tumor excision operation
Excerpt: A syngeneic tumor transplanted mouse model was created as follows referring to “Gan-Shikkan Model no Sakusei to Riyo (Cancer-Creation and Use of Disease Model)” (Takuro Nakamura, LIC, 2012). • (Breast Cancer) A tumor model was created by breeding a normal Balb/c mouse (weight: about 20 g to 30 g) for 14 days with mouse tumor cell 4T1 subcutaneously administered thereto. • (Colorectal Cancer) A tumor model was created by breeding a normal Balb/c mouse (weight: about 20 g to 30 g) for 14 days with CT26 (colorectal cancer cell) subcutaneously administered thereto. • (Skin Cancer) A tumor model was created by breeding a C57BL/6 mouse (weight: about 15 g to 20 g) for 14 days with B16F1 (skin cancer cell) subcutaneously administered thereto.
Subsequently, to the tumor of each of the model mice, 0.02 to 0.05 mL of a saline containing the compound III or ICG (concentration of the compound III or ICG: 1 mg/mL) was administered, and fluorescence imaging was performed transdermally with a near-infrared fluorescence camera (Fluobeam, manufactured by Fluoptics, http://www.solve-net.com/info/wp-content/uploads/downloads/2013/12/Fluobeam.pdf) (excitation wavelength: 780 nm, detection wavelength: 800 nm or more).

In the case of `CC1(C)C(/C=C/C=C/C=C/C=C2\N(CCCCS(=O)(=O)O)c3ccc4ccccc4c3C2(C)C)=[N+](CCCCS(=O)(=O)[O-])c2ccc3ccccc3c21` [ICG, indocyanine green, reference compound], the “drawing of tumor outline / exudation to surrounding tissues” value was “fluorescence signals were emitted outside the tumor tissue, and the outline of the tumor could not be drawn”.
